Reference: patent publication US20090305995A1, “AGONISTS AND ANTAGONISTS OF THE SOMATOSTATIN RECEPTOR” (Novartis AG, priority 2004, published 2009)
pKd: −log10 of the molar value. In brackets after ≈: the same amount, converted by molar mass. Like-named read-outs stand apart in the source and are kept apart here.

Assays:
[1] = HT-logP o/w, high throughput assay based on artificial liquid membrane permeability; assay type: physicochemical; details: octanol/water; for logP: read-out: HT LogP ohw
Excerpt: To be absorbed and transported by passive diffusion, drugs must be sufficiently lipophilic to penetrate the lipid cores of membranes, but not too lipophilic that they get retained and accumulated there. The lipophilictity of a compound is expressed by the octanol/water partition coefficient or distribution coefficient. A first approximation of substance polarity can either be given by computer assisted calculations giving Clog P values or by measurement of the partition coefficients in high-throughput assays (HT-log P o/w) (Faller et al., 2004; Wohnsland et al., 2001).
Octanol/water partition coefficients are measured in a high throughput assay based on artificial liquid membrane permeability. […] Still many approaches to calculate log P values are limited due to a lack of parameterization of certain fragments and fail with increasing molecular weight which implicates higher structural complexity. Similar problems and failures are observed in chromatographic determinations of log P: Peptides might undergo structural changes driven by interactions with the stationary phase. Decisive interactions between the stationary phase and the defolded analytes are therefore also based on the linear peptide sequence. For this reason measured HT-log P o/w values based on chromatographic assays employing stationary phases may lead to erroneous results.

hsst4 receptor = target: T1, hsst4 receptor (Homo sapiens, UniProt P31391); assay: radioligand-binding displacement assay ([125I]LTT-SRIF28), receptor expressed in CCL39 cells; details: hsst4; [125I]LTT-SRIF28 displacement
T1 construct: expressed in transfected cells; host or cells: Chinese hamster lung fibroblast (CCL39) cells
Description: The generated peptides are tested for their affinity to bind to human SRIF receptors expressed in Chinese hamster lung fibroblast (CCL39) cells. This is achieved in radioligand-binding assays, a displacement experiment in which the concentration of a substance is measured which is necessary for the replacement of 50% of a specifically bound radioligand ([^125I]LTT-SRIF28). Specific binding is measured as the total binding of receptor-specific radioligand minus the amount of radioligand bound in presence of unmarked SRIF-14 (100 nM, nonspecific binding).

[2] = high throughput solubility (HT-Solubility); assay type: physicochemical; details: for water solubility (in words): see FIG. 10
[3] = high throughput permeability (HT-Permeability, log Pe); assay type: physicochemical; details: PAMPA, Pe in cm/s
[4] = pH 1, pH 1.0, read-out: HT-Solubility pH 1.0
[5] = pH 6.8, pH 6.8, read-out: HT-Solubility pH 6.8
[6] = pH 4, pH 4.0, read-out: HT-Permeability logPe pH 4.0 (converted)
[7] = pH 6.8, pH 6.8, read-out: HT-Permeability logPe pH 6.8 (converted)
[8] = pH 8, pH 8.0, read-out: HT-Permeability logPe pH 8.0 (converted)

T1 sequence (P31391 whole entry): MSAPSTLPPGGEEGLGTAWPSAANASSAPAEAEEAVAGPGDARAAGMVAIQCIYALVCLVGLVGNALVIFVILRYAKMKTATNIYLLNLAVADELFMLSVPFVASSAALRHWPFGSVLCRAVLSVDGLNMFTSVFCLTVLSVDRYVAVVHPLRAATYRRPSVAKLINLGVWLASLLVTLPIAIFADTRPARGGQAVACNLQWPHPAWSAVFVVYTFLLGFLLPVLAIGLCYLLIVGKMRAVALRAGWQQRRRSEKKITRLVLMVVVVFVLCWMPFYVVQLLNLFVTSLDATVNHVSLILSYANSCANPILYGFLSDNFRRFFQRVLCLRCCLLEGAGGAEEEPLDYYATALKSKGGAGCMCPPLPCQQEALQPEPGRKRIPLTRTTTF

Row | Compound | logP [1] | pKd (hsst4 receptor) | solubility [2, 4] | solubility [2, 5] | Papp [3, 6] | Papp [3, 7] | Papp [3, 8] | water solubility (in words) [2] | HT LogP ohw [1] | HT-Solubility pH 1.0 ([2]; pH 1.0) | HT-Solubility pH 6.8 ([2]; pH 6.8)
1 | C[C@H]1OC(=O)C[C@H]1NC(=O)C[C@H](CCCCN)NC(=O)[C@@H](Cc1c[nH]c2ccccc12)NC(=O)C[C@H](Cc1ccccc1)NC(=O)C1CCCCC1 [Compound 5, Cyclohexanoyl-(S)-β^3-HPhe-(R)-Trp-(S)-β^3-HLys-(R)-4-amino-(R)-5-methyl-dihydro-furan-2-one] | 3.9 | 5.92 | 35.7 µg/mL (≈ 49.9 µM) | 14.3 µg/mL (≈ 20 µM) | 0.1 ×10⁻⁶ cm/s |  |  |  |  |  | 
2 | C[C@@H](O)[C@@H](CC(N)=O)NC(=O)C[C@H](CCCCN)NC(=O)[C@@H](Cc1c[nH]c2ccccc12)NC(=O)C[C@H](Cc1ccccc1)NC(=O)C12CC3CC(CC(C3)C1)C2 [Compound 18, Adamantoyl-(S)-β^3-HPhe-(R)-Trp-(S)-β^3-HLys-(R), (R)—HThr-NH2] | 3.2 | 5.21 | 78.4 µg/mL (≈ 100 µM) | 15.7 µg/mL (≈ 20 µM) | 0.1 ×10⁻⁶ cm/s |  |  |  |  |  | 
3 | CC(=O)N[C@H](CC(=O)N[C@H](Cc1c[nH]c2ccccc12)C(=O)N[C@@H](CCCCN)CC(=O)NC1CCCC1)Cc1ccccc1 [Compound 30] |  | 7.21 |  |  |  |  |  |  |  |  | 
4 | NCCCC[C@@H](CC(=O)NC1CCCC1)NC(=O)[C@@H](Cc1c[nH]c2ccccc12)NC(=O)C[C@H](Cc1ccccc1)NC(=O)C12CC3CC(CC(C3)C1)C2 [Compound 34, Adamantoyl-(S)-β^3-HPhe-(R)-Trp-(S)-β^3-HLys-cyclopentyl-amide] | 5.2 |  | 147 µg/mL (≈ 200 µM) | 73.7 µg/mL (≈ 100 µM) | 5.01 ×10⁻⁶ cm/s | 6.31 ×10⁻⁶ cm/s | 1.26 ×10⁻⁶ cm/s |  |  |  | 
5 | CC(=O)N[C@H](CC(=O)N(C)[C@H](Cc1cn(C)c2ccccc12)C(=O)N[C@@H](CCCCN)CC(=O)N[C@@H]1CC(=O)O[C@@H]1C)Cc1ccccc1 [Compound 37, Ac—(S)-β^3-HPhe-(R)—N-Me-1-Me-Trp-(S)-β^3-HLys-(R)-4-amino-(R)-5-methyl-dihydro-furan-2-one] | 2.4 |  | 135 µg/mL (≈ 200 µM) | 67.5 µg/mL (≈ 100 µM) | 6.31 ×10⁻⁶ cm/s | 5.01 ×10⁻⁶ cm/s |  |  |  |  | 
6 | CN[C@H](CC(=O)N[C@H](Cc1c[nH]c2ccccc12)C(=O)N[C@@H](CCCCN)CC(=O)N[C@@H]1CC(=O)O[C@@H]1C)Cc1ccccc1 [Compound 38, N-Me-(S)-β^3-HPhe-(R)-Trp-(S)-β^3-HLys-(R)-4-amino-(R)-5-methyl-dihydro-furan-2-one] | 3.2 |  | 124 µg/mL (≈ 200 µM) | 30.9 µg/mL (≈ 49.9 µM) | 0.1 ×10⁻⁶ cm/s |  |  |  |  |  | 
7 | CC(=O)N(C)[C@H](CC(=O)N[C@H](Cc1c[nH]c2ccccc12)C(=O)N[C@@H](CCCCN)CC(=O)N[C@@H]1CC(=O)O[C@@H]1C)Cc1ccccc1 [Compound 39, Ac—N-Me-(S)-β^3-HPhe-(R)-Trp-(S)-β^3-HLys-(R)-4-amino-(R)-5-methyl-dihydro-furan-2-one] | 3.4 |  | 132 µg/mL (≈ 200 µM) | 132 µg/mL (≈ 200 µM) | 5.01 ×10⁻⁶ cm/s | 2 ×10⁻⁶ cm/s | 3.16 ×10⁻⁶ cm/s |  |  |  | 
8 | CC(=O)N[C@H](CC(=O)N(C)[C@H](Cc1c[nH]c2ccccc12)C(=O)N[C@@H](CCCCN)CC(=O)N[C@@H]1CC(=O)O[C@@H]1C)Cc1ccccc1 [Compound 40, Ac—(S)-β^3-HPhe-(R)—N-Me-Trp-(S)-β^3-HLys-(R)-4-amino-(R)-5-methyl-dihydro-furan-2-one] | 3.3 |  | 66.1 µg/mL (≈ 100 µM) | 13.2 µg/mL (≈ 20 µM) | 0.1 ×10⁻⁶ cm/s |  |  |  |  |  | 
9 | NCCCC[C@@H](CC(=O)NC1CCCC1)NC(=O)[C@@H](Cc1c[nH]c2ccccc12)NC(=O)C[C@@H](N)Cc1ccccc1 [Compound 62, (S)-β^3-HPhe-(R)-Trp-(S)-β^3-HLys-cyclopentyl-amide] | 2.9 |  | 115 µg/mL (≈ 200 µM) | 115 µg/mL (≈ 200 µM) | 5.01 ×10⁻⁶ cm/s |  | 3.98 ×10⁻⁶ cm/s |  |  |  | 
10 | CCCCCCN(C)C(=O)C[C@H](CCCCN)NC(=O)[C@@H](Cc1c[nH]c2ccccc12)N(Cc1ccccc1)C(=O)C[C@H](Cc1ccccc1)NC(=O)CC [Compound 68] | 5.5 |  | 75.1 µg/mL (≈ 100 µM) | 15 µg/mL (≈ 20 µM) | 0.1 ×10⁻⁶ cm/s |  |  | does not allow for good water solubilities |  |  | 

The remaining lines, values ahead:

Row | logP [1] | pKd (hsst4 receptor) | solubility [2, 4] | solubility [2, 5] | Papp [3, 6] | Papp [3, 7] | Papp [3, 8] | water solubility (in words) [2] | HT LogP ohw [1] | HT-Solubility pH 1.0 ([2]; pH 1.0) | HT-Solubility pH 6.8 ([2]; pH 6.8) | Compound
11 | 3.6 |  | 132 µg/mL (≈ 200 µM) | 132 µg/mL (≈ 200 µM) | 2.51 ×10⁻⁶ cm/s | 3.98 ×10⁻⁶ cm/s | 1 ×10⁻⁶ cm/s | highest solubility values |  |  |  | CCCCCN(C)C(=O)C[C@H](CCCCN)NC(=O)[C@@H](Cc1c[nH]c2ccccc12)NC(=O)C[C@H](Cc1ccccc1)NC(=O)CCC [Compound 41, Butyroyl-(S)-β^3-HPhe-(R)-Trp-(S)-β^3-HLys-methyl-pentyl-amide]
12 | 3.7 |  | 64.7 µg/mL (≈ 100 µM) | 129 µg/mL (≈ 200 µM) | 1 ×10⁻⁶ cm/s | 2 ×10⁻⁶ cm/s | 5.01 ×10⁻⁶ cm/s | highest solubility values |  |  |  | CCCCN(C)C(=O)C[C@H](CCCCN)NC(=O)[C@@H](Cc1c[nH]c2ccccc12)NC(=O)C[C@H](Cc1ccccc1)NC(=O)CCC [Compound 42, Butyroyl-(S)-β^3-HPhe-(R)-Trp-(S)-β^3-HLys-methyl-butyl-amide]
13 | 3 |  | 127 µg/mL (≈ 200 µM) | 126 µg/mL (≈ 200 µM) | 1 ×10⁻⁶ cm/s | 2 ×10⁻⁶ cm/s | 1.26 ×10⁻⁶ cm/s | highest solubility values |  |  |  | CCCCN(C)C(=O)C[C@H](CCCCN)NC(=O)[C@@H](Cc1c[nH]c2ccccc12)NC(=O)C[C@H](Cc1ccccc1)NC(=O)CC [Compound 43, Propionyl-(S)-β^3-HPhe-(R)-Trp-(S)-β^3-HLys-methyl-butyl-amide]
14 | 3 |  | 127 µg/mL (≈ 200 µM) | 127 µg/mL (≈ 200 µM) | 3.98 ×10⁻⁶ cm/s | 1.58 ×10⁻⁶ cm/s | 1 ×10⁻⁶ cm/s | highest solubility values |  |  |  | CCCCCN(C)C(=O)C[C@H](CCCCN)NC(=O)[C@@H](Cc1c[nH]c2ccccc12)NC(=O)C[C@H](Cc1ccccc1)NC(C)=O [Compound 47, Ace-(S)-β^3-HPhe-(R)-Trp-(S)-β^3-HLys-methyl-pentyl-amide]
15 |  |  |  |  |  |  | 3.98 ×10⁻⁶ cm/s | medium to good | 3.4 | 0.1266 g 1-1 | 0.0316 g 1-1 | CCCCCNC(=O)C[C@H](CCCCN)NC(=O)[C@@H](Cc1c[nH]c2ccccc12)NC(=O)C[C@H](Cc1ccccc1)NC(=O)CC [Compound 51, Propionyl-(S)-β^3-HPhe-(R)-Trp-(S)-β^3-HLys-pentyl-amide]
16 | 3.1 |  | 124 µg/mL (≈ 200 µM) | 30.9 µg/mL (≈ 49.9 µM) | 7.94 ×10⁻⁶ cm/s | 5.01 ×10⁻⁶ cm/s | 10 ×10⁻⁶ cm/s | medium to good |  |  |  | CCCCNC(=O)C[C@H](CCCCN)NC(=O)[C@@H](Cc1c[nH]c2ccccc12)NC(=O)C[C@H](Cc1ccccc1)NC(=O)CC [Compound 53, Propionyl-(S)-β^3-HPhe-(R)-Trp-(S)-β^3-HLys-butyl-amide]
17 | 3.5 |  | 127 µg/mL (≈ 200 µM) | 12.7 µg/mL (≈ 20.1 µM) | 0.1 ×10⁻⁶ cm/s |  |  |  |  |  |  | CCCCNC(=O)C[C@H](CCCCN)NC(=O)[C@@H](Cc1c[nH]c2ccccc12)NC(=O)C[C@H](Cc1ccccc1)NC(=O)CCC [Compound 54, Butyroyl-(S)-β^3-HPhe-(R)-Trp-(S)-β^3-HLys-butyl-amide]
18 | 3.7 |  | 64.7 µg/mL (≈ 100 µM) | 12.9 µg/mL (≈ 19.9 µM) | 2.51 ×10⁻⁶ cm/s | 0.1 ×10⁻⁶ cm/s |  |  |  |  |  | CCCCCNC(=O)C[C@H](CCCCN)NC(=O)[C@@H](Cc1c[nH]c2ccccc12)NC(=O)C[C@H](Cc1ccccc1)NC(=O)CCC [Compound 55, Butyroyl-(S)-β^3-HPhe-(R)-Trp-(S)-β^3-HLys-pentyl-amide]
19 | 3 |  | 129 µg/mL (≈ 200 µM) | 12.9 µg/mL (≈ 20 µM) | 0.1 ×10⁻⁶ cm/s |  |  |  |  |  |  | CCCC(=O)N[C@H](CC(=O)N[C@H](Cc1c[nH]c2ccccc12)C(=O)N[C@@H](CCCCN)CC(=O)NC1CCCC1)Cc1ccccc1 [Compound 56, Butyroyl-(S)-β^3-HPhe-(R)-Trp-(S)-β^3-HLys-cyclopentyl-amide]
20 | 2.8 |  | 126 µg/mL (≈ 200 µM) | 63.1 µg/mL (≈ 100 µM) | 1 ×10⁻⁶ cm/s |  |  |  |  |  |  | CCC(=O)N[C@H](CC(=O)N[C@H](Cc1c[nH]c2ccccc12)C(=O)N[C@@H](CCCCN)CC(=O)NC1CCCC1)Cc1ccccc1 [Compound 57, Propionyl-(S)-β^3-HPhe-(R)-Trp-(S)-β^3-HLys-cyclopentyl-amide]
21 | 2.8 |  | 115 µg/mL (≈ 200 µM) | 115 µg/mL (≈ 200 µM) | 1.26 ×10⁻⁶ cm/s |  | 1 ×10⁻⁶ cm/s |  |  |  |  | CCCC(=O)N[C@H](CC(=O)N[C@H](Cc1c[nH]c2ccccc12)C(=O)N[C@@H](CCCCN)CC(N)=O)Cc1ccccc1 [Compound 61, Butyroyl-(S)-β^3-HPhe-(R)-Trp-(S)-β^3-HLys-NH2]
